# Tests used:
# Assay type in all cases: in vivo
# Zea mays (ZEAMX) [1] = test: Pre-Emergence Test (herbicidal, glasshouse pots); conditions: rate 250 g/ha, evaluated after 13 days, five-point scale
# Setaria faberi (SETFA) [2] = test: Pre-Emergence Test (herbicidal, glasshouse pots); conditions: rate 250 g/ha, evaluated after 13 days, five-point scale
# [3] = tested on: Ipomoea hederacea (IPOHE); test: Pre-Emergence Test (herbicidal, glasshouse pots); conditions: rate 250 g/ha, evaluated after 13 days, five-point scale
# [4] = tested on: Ipomoea hederacea (IPOHE); test: Post-Emergence Test (herbicidal, glasshouse pots); conditions: rate 250 g/ha; evaluated after 13 days
# How it was run: (§1)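 Pots in glasshouse (24/16 °C, 14 h light, 65% RH), sprayed with a.i. in acetone/water 50:50 + 0.5% Tween 20; rate in g/ha. Watered twice daily; % damage read at 13 d, scored 5=81-100%, 4=61-80%, 3=41-60%, 2=21-40%, 1=0-20%.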
# Setaria faberi (SETFA) [5] = test: Post-Emergence Test (herbicidal, glasshouse pots); conditions: rate 250 g/ha; evaluated after 13 days
# How it was run: as §1
# Zea mays (ZEAMX) [6] = test: Post-Emergence Test (herbicidal, glasshouse pots); conditions: rate 250 g/ha; evaluated after 13 days
# How it was run: as §1
# [7] = tested on: Echinochloa crus-galli (ECHCG); test: Post-Emergence Test (herbicidal, glasshouse pots); conditions: rate 250 g/ha; evaluated after 13 days
# How it was run: as §1
# [8] = tested on: Amaranthus retoflexus (AMARE); test: Post-Emergence Test (herbicidal, glasshouse pots); conditions: rate 250 g/ha; evaluated after 13 days
# How it was run: as §1
# [9] = tested on: Amaranthus palmeri (AMAPA); test: Post-Emergence Test (herbicidal, glasshouse pots); conditions: rate 250 g/ha; evaluated after 13 days
# How it was run: as §1
# [10] = tested on: Amaranthus retoflexus (AMARE); test: Pre-Emergence Test (herbicidal, glasshouse pots); conditions: rate 250 g/ha, evaluated after 13 days, five-point scale
# [11] = tested on: Echinochloa crus-galli (ECHCG); test: Pre-Emergence Test (herbicidal, glasshouse pots); conditions: rate 250 g/ha, evaluated after 13 days, five-point scale
# [12] = tested on: Amaranthus palmeri (AMAPA); test: Pre-Emergence Test (herbicidal, glasshouse pots); conditions: rate 250 g/ha, evaluated after 13 days, five-point scale
SMILES,"percentage damage caused to the plant, ZEAMX (Zea mays (ZEAMX) [1])","percentage damage caused to the plant, SETFA (Setaria faberi (SETFA) [2])","percentage damage caused to the plant, IPHOE [3]",Post-Emergence Test IPHOE percentage damage (five-point scale) [4],Post-Emergence Test SETFA percentage damage (five-point scale) (Setaria faberi (SETFA) [5]),Post-Emergence Test ZEAMX percentage damage (five-point scale) (Zea mays (ZEAMX) [6]),Post-Emergence Test ECHCG percentage damage (five-point scale) [7],Post-Emergence Test AMARE percentage damage (five-point scale) [8],Post-Emergence Test AMAPA percentage damage (five-point scale) [9],"percentage damage caused to the plant, AMARE [10]","percentage damage caused to the plant, ECHCG [11]","percentage damage caused to the plant, AMAPA [12]"
"CCc1cc(Oc2cc(=O)c(C(=O)O)c(-c3ccc(Cl)c(Cl)c3)n2CC)no1 [Compound 39, 2-(3,4-dichlorophenyl)-1-ethyl-6-(5-ethylisoxazol-3-yl)oxy-4-oxo-pyridine-3-carboxylic acid]",0,1 (1=0-20%),1 (1=0-20%),2 (2=21-40%),1 (1=0-20%),0,1 (1=0-20%),1 (1=0-20%),1 (1=0-20%),1 (1=0-20%),1 (1=0-20%),1 (1=0-20%)
"CCn1c(Oc2ccc(S(C)(=O)=O)cc2)cc(=O)c(C(=O)O)c1-c1ccc(Cl)c(Cl)c1 [Compound 40, 2-(3,4-dichlorophenyl)-1-ethyl-6-(4-methylsulfonyl-phenoxy)-4-oxo-pyridine-3-carboxylic acid]",0,2 (2=21-40%),3 (3=41-60%),4 (4=61-80%),2 (2=21-40%),1 (1=0-20%),1 (1=0-20%),2 (2=21-40%),2 (2=21-40%),1 (1=0-20%),0,1 (1=0-20%)
"CCn1c(Oc2ccc(C)c(F)c2)cc(=O)c(C(=O)O)c1-c1ccc(Cl)c(Cl)c1 [Compound 41, 2-(3,4-dichlorophenyl)-1-ethyl-6-(3-fluoro-4-methyl-phenoxy)-4-oxo-pyridine-3-carboxylic acid]",0,0,2 (2=21-40%),3 (3=41-60%),1 (1=0-20%),0,1 (1=0-20%),2 (2=21-40%),2 (2=21-40%),1 (1=0-20%),0,0
"CCn1c(Oc2ccc3nccnc3c2)cc(=O)c(C(=O)O)c1-c1ccc(Cl)c(Cl)c1 [Compound 42, 2-(3,4-dichlorophenyl)-1-ethyl-4-oxo-6-quinoxalin-6-yloxy-pyridine-3-carboxylic acid]",0,1 (1=0-20%),2 (2=21-40%),3 (3=41-60%),1 (1=0-20%),1 (1=0-20%),1 (1=0-20%),1 (1=0-20%),1 (1=0-20%),2 (2=21-40%),1 (1=0-20%),2 (2=21-40%)
"CCn1c(Oc2cnsn2)cc(=O)c(C(=O)O)c1-c1ccc(Cl)c(Cl)c1 [Compound 43, 2-(3,4-dichlorophenyl)-1-ethyl-4-oxo-6-(1,2,5-thiadiazol-3-yloxy)pyridine-3-carboxylic acid]",0,1 (1=0-20%),3 (3=41-60%),4 (4=61-80%),2 (2=21-40%),0,2 (2=21-40%),1 (1=0-20%),2 (2=21-40%),1 (1=0-20%),1 (1=0-20%),0
"CCn1c(OC2CC2)cc(=O)c(C(=O)O)c1-c1ccc(Cl)c(Cl)c1 [Compound 45, 6-(cyclopropoxy)-2-(3,4-dichlorophenyl)-1-ethyl-4-oxo-pyridine-3-carboxylic acid]",0,1 (1=0-20%),0,3 (3=41-60%),3 (3=41-60%),1 (1=0-20%),2 (2=21-40%),1 (1=0-20%),2 (2=21-40%),2 (2=21-40%),0,1 (1=0-20%)
"CCn1c(Oc2cc(C)on2)cc(=O)c(C(=O)O)c1-c1ccc(Cl)c(Cl)c1 [Compound 46, 2-(3,4-dichlorophenyl)-1-ethyl-6-(5-methylisoxazol-3-yl)oxy-4-oxo-pyridine-3-carboxylic acid]",0,1 (1=0-20%),2 (2=21-40%),3 (3=41-60%),0,0,1 (1=0-20%),2 (2=21-40%),0,2 (2=21-40%),1 (1=0-20%),1 (1=0-20%)
"C#CC(C)Oc1cc(=O)c(C(=O)O)c(-c2ccc(Cl)c(Cl)c2)n1CC (stereo not drawn) [Compound 49, 2-(3,4-dichlorophenyl)-1-ethyl-6-(1-methylprop-2-ynoxy)-4-oxo-pyridine-3-carboxylic acid]",0,1 (1=0-20%),1 (1=0-20%),1 (1=0-20%),0,1 (1=0-20%),0,1 (1=0-20%),4 (4=61-80%),1 (1=0-20%),1 (1=0-20%),0

# From patent US20250324971A1, “HERBICIDAL DERIVATIVES” (SYNGENTA CROP PROTECTION AG, priority 2022, published 2025)
